Assay results: patent publication US12059422B2 (MEI Pharma, Inc., priority 2011, dated 2024)

Legend:
[1] = target: T1, PI3Kγ (Mus musculus, UniProt Q9JHG7); assay: ELISA assay for PI3Kγ: in-cell ELISA, phosphorylation of AKT (Ser473) in RAW 264.7 cells; type: cell-based; settings: cellular, pAKT (Ser473), C5a stimulation, read-out: IC50 p110γ
T1 construct: endogenous in cells; host or cells: RAW 264.7 (ATCC #TIB-71)
Description: PI3K gamma (PI3Kγ) activity was determined by measuring the phosphorylation of AKT (Ser473) using an in-cell ELISA assay. RAW 264.7 (mouse macrophage) cells were obtained from ATCC (ATCC #TIB-71). Growth medium was DMEM (CellGro #CV-10-013-CV) supplemented with 10% fetal bovine serum, 100 IU/mL penicillin, 100 μg/mL streptomycin, and 1×MEM non-essential amino acids. Phosphate buffered saline (PBS) contained 2.7 M NaCl, 54 mM KCl, 86 mM […] (dibasic, anhydrous), and 28 mM […] (monobasic, anhydrous) at pH 7.2. Stimulation mixture (10×) was 500 ng/mL recombinant human complement component C5a (R&D systems #2037-C5-025) diluted in serum-free DMEM medium (CellGro #CV-10-013-CV). Compounds for testing were dissolved and serially diluted in 100% DMSO (total of 10 concentrations), then diluted in serum-free DMEM to 2× final assay concentration. Fixative solution (2×) was 8% formaldehyde (Amresco #M134) diluted in PBS. Permeabilization solution was PBS supplemented with 0.10% Triton X-100. Blocking buffer was obtained from LiCor (LiCor #927-40000). Wash buffer was PBS supplemented with 0.1% Tween-20. Primary antibody solution was rabbit anti-pAKT^S473 monoclonal antibody (Cell Signaling #4060) and mouse anti-total S6 (Santa Cruz #74459) diluted 1:500 and 1:2000, respectively, in the blocking buffer. Secondary antibody solution was IRDye 800CW-conjugated goat anti-rabbit IgG (LiCor #926-32211) and IRDye 680LT-conjugated goat anti-mouse IgG (LiCor #926-68020) diluted 1:1000 and 1:2000, respectively, in the blocking buffer.
RAW 264.7 cells were subcultured in growth medium and seeded into flat, clear bottom, 96-well plates (Corning #3904) at 70000 cells/well, then incubated overnight in a 37° C., 5% CO2 incubator. Growth medium in plates was replaced with 100 μL/well serum-free DMEM and incubated overnight in a 37° C., 5% CO2 incubator. Fresh serum-free DMEM (50 μL/well) was added to plates. Compound treatment was performed by adding 50 μL/well of 2× compound mixture to plates and incubating for 2 hrs at 37° C., 5% CO2, after which 11 μL/well of 10× stimulation mixture was added and plates were incubated for 3 min at 37° C., 5% CO2. Fixation was performed by adding 110 μL/well of 2× fixative solution to plates and incubating for 20 min at room temperature. Permeabilization was performed by replacing fixation solution with 150 μL/well permeabilization solution and incubating for 10 min at room temperature. Permeabilization was repeated (for a total of 2 times). Permeabilization solution was replaced with 100 μL/well blocking buffer and plates were incubated for 1 hr at room temperature, after which 100 μL/well of primary antibody solution was added and plates were incubated overnight at 4° C. Plates were washed with wash buffer, after which 100 μL/well of secondary antibody solution was added to the plates and incubated in the dark for 1 hr at room temperature. Plates were washed with wash buffer, followed by awash with PBS. After completely removing PBS, plates were scanned on the Licor Odyssey Imager. Images were quantified using Licor Odyssey application software. IC50 values were determined by curve fitting using a Collaborative Drug Discovery database (www.collaborativedrug.com).

[2] = target: T2, PI3K beta (Homo sapiens, UniProt P42338); assay: Luciferase-based luminescence assay (ADP Glo), PI3K beta enzymatic activity; type: biochemical; settings: for IC50: inhibition of enzymatic activity, ADP Glo, 25 μM ATP, read-out: IC50 p110β; for α/β ratio: ratio of enzymatic IC50 values, Table 1
T2 construct: purchased Millipore, Billerica, MA, USA
How it was run: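 Final enzyme 4.8 nM PI3K beta or 7.6 nM PI3K gamma, with 50 μM PIP2 and 25 μM ATP, 1 h in HEPES pH 7.5 buffer with MgCl2, EGTA, NaCl, CHAPS and DTT. ADP formed measured by ADP-Glo luminescence; IC50 from 10-point curve fits.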

T2 sequence (P42338 whole entry, species assumed): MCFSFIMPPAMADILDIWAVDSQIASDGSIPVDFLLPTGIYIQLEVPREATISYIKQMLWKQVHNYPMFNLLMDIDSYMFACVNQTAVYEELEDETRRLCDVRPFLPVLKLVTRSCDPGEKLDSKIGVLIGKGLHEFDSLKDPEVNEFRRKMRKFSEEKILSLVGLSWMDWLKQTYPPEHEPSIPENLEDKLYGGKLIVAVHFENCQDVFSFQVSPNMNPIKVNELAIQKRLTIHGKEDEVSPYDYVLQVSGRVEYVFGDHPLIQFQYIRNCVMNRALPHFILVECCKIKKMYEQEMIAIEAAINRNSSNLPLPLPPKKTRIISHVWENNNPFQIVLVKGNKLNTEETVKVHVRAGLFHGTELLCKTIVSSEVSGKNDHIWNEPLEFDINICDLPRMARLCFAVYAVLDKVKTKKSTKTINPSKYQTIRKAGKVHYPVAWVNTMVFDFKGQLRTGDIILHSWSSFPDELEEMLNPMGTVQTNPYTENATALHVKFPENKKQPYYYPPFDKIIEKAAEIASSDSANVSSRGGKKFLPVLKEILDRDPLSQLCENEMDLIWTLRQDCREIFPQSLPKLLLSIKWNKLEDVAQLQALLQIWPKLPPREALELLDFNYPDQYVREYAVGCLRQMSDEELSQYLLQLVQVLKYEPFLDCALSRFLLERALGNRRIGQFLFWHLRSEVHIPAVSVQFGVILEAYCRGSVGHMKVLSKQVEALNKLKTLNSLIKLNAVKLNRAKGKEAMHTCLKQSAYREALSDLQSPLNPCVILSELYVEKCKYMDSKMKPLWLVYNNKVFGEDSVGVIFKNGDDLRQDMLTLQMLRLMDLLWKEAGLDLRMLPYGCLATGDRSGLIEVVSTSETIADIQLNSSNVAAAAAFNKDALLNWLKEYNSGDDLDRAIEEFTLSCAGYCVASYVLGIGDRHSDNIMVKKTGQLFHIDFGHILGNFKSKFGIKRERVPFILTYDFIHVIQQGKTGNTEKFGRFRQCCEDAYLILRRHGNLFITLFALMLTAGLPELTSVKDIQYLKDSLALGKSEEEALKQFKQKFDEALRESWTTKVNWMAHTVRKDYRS
T2 sequence (P27986 whole entry partner, species assumed): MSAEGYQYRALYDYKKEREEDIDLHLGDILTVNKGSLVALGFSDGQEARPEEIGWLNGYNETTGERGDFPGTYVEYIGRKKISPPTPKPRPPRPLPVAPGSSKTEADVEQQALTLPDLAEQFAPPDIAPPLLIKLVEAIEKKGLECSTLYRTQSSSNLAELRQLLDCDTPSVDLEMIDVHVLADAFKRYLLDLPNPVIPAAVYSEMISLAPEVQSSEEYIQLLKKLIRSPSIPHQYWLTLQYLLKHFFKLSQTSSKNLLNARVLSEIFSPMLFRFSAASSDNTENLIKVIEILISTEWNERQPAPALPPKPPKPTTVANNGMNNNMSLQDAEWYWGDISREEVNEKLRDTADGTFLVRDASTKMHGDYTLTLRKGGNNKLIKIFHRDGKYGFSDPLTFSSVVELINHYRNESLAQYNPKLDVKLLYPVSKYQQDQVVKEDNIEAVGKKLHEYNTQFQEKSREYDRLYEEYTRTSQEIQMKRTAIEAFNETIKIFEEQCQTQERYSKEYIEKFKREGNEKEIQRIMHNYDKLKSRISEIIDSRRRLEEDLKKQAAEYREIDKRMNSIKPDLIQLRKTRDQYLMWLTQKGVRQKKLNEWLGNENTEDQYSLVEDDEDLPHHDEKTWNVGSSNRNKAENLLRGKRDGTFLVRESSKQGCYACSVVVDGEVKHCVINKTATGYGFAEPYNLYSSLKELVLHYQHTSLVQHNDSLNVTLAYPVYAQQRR
T1 sequence (Q9JHG7 whole entry): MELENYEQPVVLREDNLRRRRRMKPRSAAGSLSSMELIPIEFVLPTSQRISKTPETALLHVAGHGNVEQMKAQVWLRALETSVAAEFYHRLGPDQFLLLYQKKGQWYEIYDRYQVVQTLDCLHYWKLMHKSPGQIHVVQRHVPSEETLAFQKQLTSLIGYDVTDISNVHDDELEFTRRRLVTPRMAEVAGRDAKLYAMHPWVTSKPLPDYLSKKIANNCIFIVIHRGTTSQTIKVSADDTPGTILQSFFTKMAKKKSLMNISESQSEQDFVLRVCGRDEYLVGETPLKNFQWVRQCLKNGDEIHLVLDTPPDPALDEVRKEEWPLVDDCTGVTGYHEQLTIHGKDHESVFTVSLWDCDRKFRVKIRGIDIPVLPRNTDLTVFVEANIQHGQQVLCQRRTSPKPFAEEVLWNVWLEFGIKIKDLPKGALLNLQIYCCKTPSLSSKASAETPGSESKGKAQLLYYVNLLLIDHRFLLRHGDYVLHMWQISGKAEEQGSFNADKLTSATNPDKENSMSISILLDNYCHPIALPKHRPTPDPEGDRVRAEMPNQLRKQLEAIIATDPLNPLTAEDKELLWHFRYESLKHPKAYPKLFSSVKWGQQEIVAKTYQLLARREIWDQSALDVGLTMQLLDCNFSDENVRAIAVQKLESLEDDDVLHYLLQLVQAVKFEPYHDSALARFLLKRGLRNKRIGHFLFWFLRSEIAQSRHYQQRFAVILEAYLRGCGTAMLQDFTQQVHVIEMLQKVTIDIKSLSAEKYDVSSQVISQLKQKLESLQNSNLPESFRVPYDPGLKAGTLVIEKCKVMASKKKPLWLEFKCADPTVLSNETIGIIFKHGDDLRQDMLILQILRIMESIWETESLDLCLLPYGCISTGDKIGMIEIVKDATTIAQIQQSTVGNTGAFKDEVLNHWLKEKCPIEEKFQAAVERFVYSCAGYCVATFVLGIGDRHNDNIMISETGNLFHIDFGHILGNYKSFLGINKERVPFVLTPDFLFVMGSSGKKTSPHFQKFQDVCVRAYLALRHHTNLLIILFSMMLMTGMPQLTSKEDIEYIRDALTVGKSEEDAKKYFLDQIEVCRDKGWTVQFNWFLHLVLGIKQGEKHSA

SMILES | IC50 [1] | IC50 [2] | α/β ratio [2]
CC(C)(Cc1ccccc1-c1ccccc1Cl)Nc1nc(N2CCOCC2)nc(-n2c(C(F)F)nc3ccccc32)n1 [Compound A61, 4-(2-(difluoromethyl)-1H-benzo[d]imidazol-1-yl)-N-(1-(6′-chlorobiphenyl-2-yl)-2-methylpropan-2-yl)-6-morpholino-1,3,5-triazin-2-amine] | > 500 nM | ≤ 100 nM | A’
Cn1cc(-c2ccccc2CC(C)(C)Nc2nc(N3CCOCC3)nc(-n3c(C(F)F)nc4ccccc43)n2)cn1 [Compound A45, 4-(2-(difluoromethyl)-1H-benzo[d]imidazol-1-yl)-N-(2-methyl-1-(2-(1-methyl-1H-pyrazol-4-yl)phenyl)propan-2-yl)-6-morpholino-1,3,5-triazin-2-amine] | ≤ 100 nM | ≤ 100 nM | A’
CCN1CCC(c2ccccc2CC(C)(C)Nc2nc(N3CCOCC3)nc(-n3c(C(F)F)nc4ccccc43)n2)CC1 [Compound A70, 4-(2-(difluoromethyl)-1H-benzo[d]imidazol-1-yl)-N-(1-(2-(1-ethylpiperidin-4-yl)phenyl)-2-methylpropan-2-yl)-6-morpholino-1,3,5-triazin-2-amine] | > 500 nM | > 500 nM | C’
CC(=O)N1CCC(c2ccccc2CC(C)(C)Nc2nc(N3CCOCC3)nc(-n3c(C(F)F)nc4ccccc43)n2)CC1 [Compound A72, 4-(2-(difluoromethyl)-1H-benzo[d]imidazol-1-yl)-N-(2-methyl-1-(2-(1-acetylpiperidin-4-yl)phenyl)propan-2-yl)-6-morpholino-1,3,5-triazin-2-amine] | ≤ 100 nM | ≤ 100 nM | A’
CC(C)(Cc1ccccc1C1CCN(S(C)(=O)=O)CC1)Nc1nc(N2CCOCC2)nc(-n2c(C(F)F)nc3ccccc32)n1 [Compound A73, 4-(2-(difluoromethyl)-1H-benzo[d]imidazol-1-yl)-N-(2-methyl-1-(2-(1-(methylsulfonyl)piperidin-4-yl)phenyl)propan-2-yl)-6-morpholino-1,3,5-triazin-2-amine] | ≤ 100 nM | ≤ 100 nM | A’

The remaining lines, values ahead:

IC50 [1] | IC50 [2] | α/β ratio [2] | SMILES
200 to 500 nM | ≤ 100 nM | B’ | CC(C)(Cc1ccccc1-c1cccnc1)Nc1nc(N2CCOCC2)nc(-n2c(C(F)F)nc3ccccc32)n1 [Compound A40, 4-(2-(difluoromethyl)-1H-benzo[d]imidazol-1-yl)-N-(2-methyl-1-(2-(pyridin-3-yl)phenyl)propan-2-yl)-6-morpholino-1,3,5-triazin-2-amine]
200 to 500 nM | ≤ 100 nM | A’ | Cc1cc(-c2ccccc2CC(C)(C)Nc2nc(N3CCOCC3)nc(-n3c(C(F)F)nc4ccccc43)n2)ccn1 [Compound A43, 4-(2-(difluoromethyl)-1H-benzo[d]imidazol-1-yl)-N-(2-methyl-1-(2-(2-methylpyridin-4-yl)phenyl)propan-2-yl)-6-morpholino-1,3,5-triazin-2-amine]
> 500 nM | 200 to 500 nM | D’ | COc1ccc(-c2ccccc2CC(C)(C)Nc2nc(N3CCOCC3)nc(-n3c(C(F)F)nc4ccccc43)n2)cc1 [Compound A67, 4-(2-(difluoromethyl)-1H-benzo[d]imidazol-1-yl)-N-(1-(4′-methoxybiphenyl-2-yl)-2-methylpropan-2-yl)-6-morpholino-1,3,5-triazin-2-amine]
> 500 nM | > 500 nM | D’ | COc1cc(-c2ccccc2CC(C)(C)Nc2nc(N3CCOCC3)nc(-n3c(C(F)F)nc4ccccc43)n2)ccn1 [Compound A41, 4-(2-(difluoromethyl)-1H-benzo[d]imidazol-1-yl)-N-(1-(2-(2-methoxypyridin-4-yl)phenyl)-2-methylpropan-2-yl)-6-morpholino-1,3,5-triazin-2-amine]
